Experimental data: the supplement of paper PMC10307832

Tests used:
Experiment in all cases: relative viability (nuclei count vs DMSO), 5 days (fraction); higher = more cells survive
[1] = compound: C/C(=N\NC(=S)N1CCC1)/C2=CC=CC=N2 + CC(C)C[C@H](NC(=O)[C@H](Cc1ccccc1)NC(=O)c1cnccn1)B(O)O [Bortezomib] (partner 0.002 µM)
Outline: (§1)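 Relative viability divides the nuclei count in treated wells by that in vehicle wells. Lung cancer cell lines were seeded in 1536-well plates, dosed by pin tool the next day, and fixed and stained after 5 days in one step with final 0.05% Triton X-100, 1% formaldehyde and 1 ug/ml Hoechst. Dosing was a single drug or a fixed anchor-drug dose plus five library-drug doses (not always all listed) in √10 steps, and values are medians of duplicate plates imaged at 4×.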

[2] = compound: C/C(=N\NC(=S)N1CCC1)/C2=CC=CC=N2 + CS(=O)(=O)CCNCc1ccc(-c2ccc3ncnc(Nc4ccc(OCc5cccc(F)c5)c(Cl)c4)c3c2)o1 [Lapatinib] (partner 2 µM)
Outline: as §1

[3] = compound: C/C(=N\NC(=S)N1CCC1)/C2=CC=CC=N2 + NC(=O)Nc1cc(-c2cccc(F)c2)sc1C(=O)N[C@H]1CCCNC1 [AZD7762] (partner 0.2 µM)
Outline: as §1

[4] = compound: C/C(=N\NC(=S)N1CCC1)/C2=CC=CC=N2 + Nc1ncn([C@H]2C[C@H](O)[C@@H](CO)O2)c(=O)n1 [Decitabine] (partner 2 µM)
Outline: as §1

Cell Line	relative viability ([1]; first compound 0.05 µM)	relative viability ([1]; first compound 0.1581 µM)	relative viability ([1]; first compound 0.5 µM)	relative viability ([1]; first compound 1.581 µM)	relative viability ([1]; first compound 5 µM)	relative viability ([2]; first compound 0.05 µM)	relative viability ([2]; first compound 0.1581 µM)	relative viability ([2]; first compound 0.5 µM)	relative viability ([2]; first compound 1.581 µM)	relative viability ([2]; first compound 5 µM)	relative viability ([3]; first compound 0.05 µM)	relative viability ([3]; first compound 0.1581 µM)	relative viability ([3]; first compound 0.5 µM)	relative viability ([3]; first compound 1.581 µM)	relative viability ([3]; first compound 5 µM)	relative viability ([4]; first compound 0.05 µM)	relative viability ([4]; first compound 0.1581 µM)	relative viability ([4]; first compound 0.5 µM)	relative viability ([4]; first compound 1.581 µM)	relative viability ([4]; first compound 5 µM)
201T	0.527	0.612	0.418	0.394	0.348	0.447	0.578	0.444	0.447	0.351	0.287	0.285	0.273	0.211	0.233	0.553	0.802	0.348	0.29	0.28
A549	–	–	–	–	–	0.065	0.0607	0.0715	0.0714	0.0609	–	–	–	–	–	0.0459	0.0345	0.0375	0.0441	0.0197
A-427	0.171	0.147	0.126	0.117	0.114	0.138	0.149	0.138	0.115	0.139	0.188	0.173	0.159	0.156	0.178	0.182	0.214	0.194	0.171	0.17
ABC-1	0.296	0.273	0.233	0.276	0.283	0.475	0.513	0.495	0.459	0.456	0.282	0.342	0.341	0.288	0.305	0.343	0.373	0.385	0.381	0.287
BEN	0.15	0.211	0.211	0.193	0.165	0.178	0.201	0.21	0.203	0.188	0.265	0.339	0.288	0.238	0.279	0.253	0.338	0.318	0.266	0.359
CAL-12T	0.21	0.252	0.256	0.215	0.24	0.259	0.214	0.2	0.182	0.187	0.284	0.226	0.281	0.206	0.159	–	–	–	–	–
COR-L23	0.12	0.139	0.114	0.077	0.0874	0.144	0.156	0.119	0.0787	0.101	–	–	–	–	–	0.156	0.149	0.161	0.106	0.0995
COR-L 105	0.287	0.339	0.297	0.253	0.244	0.375	0.342	0.375	0.314	0.286	–	–	–	–	–	0.31	0.413	0.327	0.306	0.313
Calu-6	0.165	0.182	0.188	0.171	0.175	0.132	0.146	0.124	0.128	0.131	–	–	–	–	–	–	–	–	–	–
ChaGo-K-1	0.285	0.462	0.285	0.221	0.318	–	–	–	–	–	0.177	0.175	0.154	0.154	0.154	0.159	0.321	0.147	0.174	0.178
EKVX	0.138	0.129	0.103	0.141	0.144	0.108	0.137	0.119	0.153	0.131	0.106	0.115	0.128	0.14	0.143	0.15	0.138	0.13	0.138	0.16
EMC-BAC-2	0.104	0.142	0.149	0.174	0.16	0.113	0.169	0.178	0.173	0.153	0.252	0.259	0.241	0.176	0.216	0.261	0.268	0.228	0.219	0.212
EPLC-272H	0.116	0.155	0.133	0.131	0.116	0.139	0.195	0.229	0.155	0.161	0.106	0.104	0.106	0.0639	0.114	0.123	0.111	0.109	0.062	0.101
H3255	0.227	0.276	0.268	0.171	0.195	0.255	0.218	0.14	0.157	0.184	0.302	0.308	0.286	0.244	0.237	0.211	0.231	0.24	0.209	0.228
HARA	0.22	0.143	0.197	0.13	0.0787	0.102	0.115	0.155	0.0859	0.0828	0.129	0.199	0.144	0.104	0.124	0.229	0.168	0.153	0.242	0.164
HCC-15	0.133	0.0661	0.0658	0.0754	0.0698	0.082	0.078	0.0841	0.0904	0.0765	0.084	0.084	0.105	0.113	0.103	0.0738	0.16	0.117	0.0902	0.0924
HCC-44	0.335	0.234	0.221	0.19	0.239	0.292	0.184	0.177	0.156	0.232	0.702	0.573	0.488	0.445	0.47	0.559	0.544	0.52	0.551	0.428
HCC-78	0.509	0.257	0.178	0.153	0.232	0.0064	0.211	0.226	0.158	0.178	0.327	0.332	0.226	0.169	0.174	0.453	0.413	0.407	0.244	0.22
IA-LM	0.0596	0.0778	0.0529	0.0604	0.0675	0.0819	0.067	0.0525	0.0618	0.0601	–	–	–	–	–	–	–	–	–	–
LCLC-103H	0.294	0.353	0.242	0.229	0.206	–	–	–	–	–	0.272	0.219	0.27	0.185	0.262	0.346	0.684	0.329	0.342	0.291
LK-2	–	–	–	–	–	0.171	0.25	0.201	0.144	0.199	0.0945	0.0875	0.049	0.086	0.0796	0.0805	0.111	0.0805	0.0894	0.0937
NCI-H358	–	–	–	–	–	0.233	0.247	0.244	0.193	0.199	0.174	0.217	0.16	0.15	0.18	0.114	0.12	0.0978	0.0977	0.0971

Cell Line	relative viability ([1]; first compound 0.05 µM)	relative viability ([1]; first compound 0.1581 µM)	relative viability ([1]; first compound 0.5 µM)	relative viability ([1]; first compound 1.581 µM)	relative viability ([1]; first compound 5 µM)	relative viability ([2]; first compound 0.05 µM)	relative viability ([2]; first compound 0.1581 µM)	relative viability ([2]; first compound 0.5 µM)	relative viability ([2]; first compound 1.581 µM)	relative viability ([2]; first compound 5 µM)	relative viability ([3]; first compound 0.05 µM)	relative viability ([3]; first compound 0.1581 µM)	relative viability ([3]; first compound 0.5 µM)	relative viability ([3]; first compound 1.581 µM)	relative viability ([3]; first compound 5 µM)	relative viability ([4]; first compound 0.05 µM)	relative viability ([4]; first compound 0.1581 µM)	relative viability ([4]; first compound 0.5 µM)	relative viability ([4]; first compound 1.581 µM)	relative viability ([4]; first compound 5 µM)
NCI-H441	0.162	0.153	0.171	0.146	0.127	–	–	–	–	–	0.264	0.178	0.173	0.144	0.153	0.185	0.163	0.17	0.134	0.126
NCI-H520	0.137	0.167	0.126	0.102	0.166	0.131	0.148	0.12	0.12	0.144	–	–	–	–	–	0.161	0.167	0.145	0.159	0.17
NCI-H522	–	–	–	–	–	–	–	–	–	–	0.307	0.279	0.24	0.292	0.397	0.402	0.456	0.333	0.345	0.385
NCI-H661	0.213	0.2	0.185	0.217	0.185	0.187	0.184	0.2	0.201	0.198	–	–	–	–	–	0.274	0.26	0.218	0.236	0.232
NCI-H1299	0.111	0.155	0.206	0.209	0.138	0.192	0.221	0.197	0.185	0.143	–	–	–	–	–	–	–	–	–	–
NCI-H1395	–	–	–	–	–	0.314	0.424	0.355	0.315	0.412	0.287	0.326	0.402	0.35	0.406	0.331	0.36	0.357	0.354	0.377
NCI-H1563	0.664	0.701	0.611	0.574	0.553	0.626	0.61	0.573	0.598	0.623	–	–	–	–	–	–	–	–	–	–
NCI-H1648	–	–	–	–	–	–	–	–	–	–	0.337	0.305	0.269	0.288	0.297	0.274	0.248	0.3	0.338	0.353
NCI-H1650	0.177	0.2	0.182	0.188	0.168	0.257	0.204	0.192	0.267	0.199	–	–	–	–	–	0.189	0.141	0.141	0.206	0.186
NCI-H1703	0.0746	0.0958	0.166	0.134	0.171	0.185	0.153	0.17	0.168	0.178	0.0509	0.0548	0.0472	0.114	0.102	–	–	–	–	–
NCI-H1793	–	–	–	–	–	0.192	0.169	0.165	0.146	0.197	0.129	0.199	0.104	0.116	0.142	0.276	0.193	0.218	0.138	0.166
NCI-H1944	–	–	–	–	–	0.194	0.317	0.207	0.144	0.163	0.227	0.169	0.145	0.102	0.129	0.225	0.413	0.158	0.116	0.143
NCI-H2009	0.117	0.126	0.138	0.122	0.0916	0.141	0.16	0.151	0.161	0.0978	–	–	–	–	–	0.114	0.155	0.144	0.136	0.117
NCI-H2023	0.096	0.0935	0.0847	0.0887	0.0763	0.0813	0.0823	0.106	0.064	0.0792	–	–	–	–	–	0.0753	0.0791	0.067	0.0569	0.0755
NCI-H2170	–	–	–	–	–	0.24	0.2	0.203	0.192	0.188	0.298	0.178	0.153	0.126	0.1	0.374	0.434	0.22	0.199	0.14
NCI-H2228	0.169	0.295	0.161	0.119	0.179	0.144	0.162	0.136	0.0958	0.139	–	–	–	–	–	–	–	–	–	–
NCI-H2342	–	–	–	–	–	–	–	–	–	–	0.302	0.32	0.278	0.256	0.285	0.318	0.306	0.265	0.276	0.25
SK-LU-1	0.218	0.263	0.212	0.194	0.268	0.301	0.149	0.14	0.142	0.204	–	–	–	–	–	0.274	0.327	0.25	0.246	0.294
SK-MES-1	–	–	–	–	–	0.301	0.293	0.213	0.185	0.2	–	–	–	–	–	0.193	0.186	0.171	0.142	0.19
SW 1573	0.143	0.115	0.151	0.117	0.087	0.164	0.17	0.182	0.118	0.109	–	–	–	–	–	0.0582	0.119	0.111	0.0723	0.0647
UMC-11	0.175	0.173	0.141	0.141	0.101	0.201	0.195	0.165	0.145	0.134	–	–	–	–	–	0.446	0.2	0.261	0.273	0.2
